Assay results: the NIST ThermoML archive (doi:10.1021/je900124n)
Where “and” joins values, the source holds several entries; their conditions need not be identical. Equal entries are not always repeated.

Settings: Fluid (supercritical or subcritical phases), Buoyancy - hydrostatic balance with magnetic suspension - two sinkers

CCC [propane]
Settings | mass density
380 K, 4703.9 kPa | 148.078 kg/m3 [middle of 5 runs]
380 K, 4705.6 kPa | 148.36 kg/m3 [middle of 4 runs]
380 K, 4705.7 kPa | 148.363 kg/m3
380 K, 4755.7 kPa | 155.492 kg/m3 [middle of 5 runs]
380 K, 4879.5 kPa | 178.216 kg/m3 and 178.213 kg/m3
380 K, 4879.6 kPa | 178.236 kg/m3 and 178.204 kg/m3 and 178.214 kg/m3
380 K, 4957.6 kPa | 197.127 kg/m3
380 K, 4957.7 kPa | 197.117 kg/m3 and 197.11 kg/m3
380 K, 4957.8 kPa | 197.115 kg/m3 [middle of 4 runs]
380 K, 4957.9 kPa | 197.119 kg/m3
380 K, 5001.3 kPa | 208.689 kg/m3
380 K, 5001.5 kPa | 208.739 kg/m3
380 K, 5002.2 kPa | 208.955 kg/m3 and 208.946 kg/m3 and 208.942 kg/m3
380 K, 5002.3 kPa | 208.948 kg/m3 and 208.946 kg/m3
380 K, 5041.6 kPa | 219.674 kg/m3 and 219.68 kg/m3 and 219.675 kg/m3
380 K, 5041.7 kPa | 219.681 kg/m3 [middle of 4 runs]
380 K, 5067.9 kPa | 226.412 kg/m3 and 226.42 kg/m3
380 K, 5068 kPa | 226.427 kg/m3
380 K, 5068.1 kPa | 226.418 kg/m3
380 K, 5141.5 kPa | 243.559 kg/m3 and 243.562 kg/m3 and 243.564 kg/m3
380 K, 5141.6 kPa | 243.563 kg/m3 [middle of 5 runs]
380 K, 5268.6 kPa | 264.989 kg/m3 and 264.991 kg/m3
380 K, 5268.8 kPa | 264.985 kg/m3 and 264.995 kg/m3
380 K, 5408.3 kPa | 280.991 kg/m3 [middle of 4 runs]
380 K, 5408.4 kPa | 280.991 kg/m3 and 280.992 kg/m3 and 280.986 kg/m3
380 K, 6684.1 kPa | 336.97 kg/m3 and 336.962 kg/m3
380 K, 6684.2 kPa | 336.972 kg/m3
380 K, 6684.3 kPa | 336.974 kg/m3 and 336.97 kg/m3
380 K, 6684.4 kPa | 336.974 kg/m3
380 K, 7975.3 kPa | 360.582 kg/m3
380 K, 7975.4 kPa | 360.58 kg/m3
380 K, 7975.5 kPa | 360.582 kg/m3 [middle of 6 runs]
380 K, 7975.6 kPa | 360.58 kg/m3 and 360.581 kg/m3
380 K, 7975.7 kPa | 360.586 kg/m3
380 K, 7975.8 kPa | 360.584 kg/m3 and 360.583 kg/m3
380 K, 10919 kPa | 391.154 kg/m3 [middle of 4 runs]
380 K, 10920 kPa | 391.156 kg/m3 and 391.155 kg/m3
380 K, 11880 kPa | 398.187 kg/m3 and 398.185 kg/m3
380 K, 11881 kPa | 398.189 kg/m3 and 398.186 kg/m3
380 K, 15945 kPa | 420.987 kg/m3 and 420.99 kg/m3
380 K, 15946 kPa | 420.986 kg/m3
380 K, 19820 kPa | 436.807 kg/m3 and 436.806 kg/m3
380 K, 19821 kPa | 436.811 kg/m3 and 436.808 kg/m3 and 436.81 kg/m3
380 K, 23098 kPa | 447.702 kg/m3 [middle of 5 runs]
380 K, 23099 kPa | 447.703 kg/m3 and 447.702 kg/m3
380 K, 23697 kPa | 449.488 kg/m3 and 449.487 kg/m3 and 449.489 kg/m3
380 K, 29645 kPa | 465.242 kg/m3 and 465.241 kg/m3
380 K, 29646 kPa | 465.242 kg/m3 and 465.241 kg/m3
380 K, 34344 kPa | 475.596 kg/m3 [middle of 4 runs]
380 K, 34345 kPa | 475.597 kg/m3
380.01 K, 954.8 kPa | 14.3809 kg/m3
380.01 K, 954.81 kPa | 14.381 kg/m3
380.01 K, 3513.7 kPa | 73.3411 kg/m3
380.01 K, 5268.9 kPa | 264.989 kg/m3
380.01 K, 6684.6 kPa | 336.973 kg/m3
380.01 K, 6684.7 kPa | 336.971 kg/m3
400 K, 336.43 kPa | 4.5554 kg/m3 and 4.5553 kg/m3
400 K, 599.95 kPa | 8.2683 kg/m3
400 K, 599.96 kPa | 8.2685 kg/m3 and 8.2684 kg/m3
400 K, 956.18 kPa | 13.5094 kg/m3
400 K, 957.16 kPa | 13.5243 kg/m3
400 K, 957.89 kPa | 13.5351 kg/m3
400 K, 959.04 kPa | 13.5529 kg/m3
400 K, 962.98 kPa | 13.6116 kg/m3
400 K, 1542.1 kPa | 22.7724 kg/m3
400 K, 1542.2 kPa | 22.7738 kg/m3 and 22.7745 kg/m3
400 K, 1542.3 kPa | 22.7764 kg/m3
400 K, 1542.4 kPa | 22.7771 kg/m3
400 K, 2380.3 kPa | 37.7472 kg/m3 and 37.7486 kg/m3 and 37.7481 kg/m3
400 K, 2380.5 kPa | 37.7508 kg/m3 and 37.7503 kg/m3
400 K, 3308.6 kPa | 57.6872 kg/m3 [middle of 5 runs]
400 K, 3901.8 kPa | 73.2165 kg/m3 [middle of 4 runs]
400 K, 3901.9 kPa | 73.2188 kg/m3
400 K, 3902 kPa | 73.2191 kg/m3
400 K, 4691.9 kPa | 99.4254 kg/m3 and 99.4238 kg/m3 and 99.4251 kg/m3
400 K, 4692 kPa | 99.4292 kg/m3 and 99.4262 kg/m3
400 K, 5668.4 kPa | 147.912 kg/m3
400 K, 5668.5 kPa | 147.917 kg/m3 [middle of 6 runs]
400 K, 5673.1 kPa | 148.232 kg/m3
400 K, 5673.2 kPa | 148.239 kg/m3 and 148.234 kg/m3 and 148.236 kg/m3
400 K, 5673.3 kPa | 148.236 kg/m3
400 K, 5676.5 kPa | 148.439 kg/m3 and 148.438 kg/m3
400 K, 5676.6 kPa | 148.445 kg/m3 and 148.444 kg/m3 and 148.437 kg/m3
400 K, 5676.7 kPa | 148.447 kg/m3 [middle of 8 runs]
400 K, 5676.8 kPa | 148.451 kg/m3 [middle of 9 runs]
400 K, 5676.9 kPa | 148.458 kg/m3 [middle of 6 runs]
400 K, 5677 kPa | 148.462 kg/m3 [middle of 5 runs]
400 K, 5677.1 kPa | 148.464 kg/m3 and 148.466 kg/m3
400 K, 5677.2 kPa | 148.477 kg/m3 and 148.472 kg/m3
400 K, 5677.4 kPa | 148.487 kg/m3 and 148.49 kg/m3
400 K, 5677.9 kPa | 148.509 kg/m3
400 K, 5678 kPa | 148.518 kg/m3 and 148.516 kg/m3 and 148.517 kg/m3
400 K, 5678.1 kPa | 148.519 kg/m3 and 148.526 kg/m3 and 148.518 kg/m3
400 K, 5678.2 kPa | 148.528 kg/m3 [middle of 13 runs]
400 K, 5678.3 kPa | 148.528 kg/m3 and 148.529 kg/m3
400 K, 5781.6 kPa | 155.313 kg/m3 and 155.311 kg/m3
400 K, 5781.7 kPa | 155.314 kg/m3 and 155.311 kg/m3
400 K, 6338.3 kPa | 196.876 kg/m3 and 196.877 kg/m3
400 K, 6338.4 kPa | 196.877 kg/m3 [middle of 5 runs]
400 K, 6338.5 kPa | 196.877 kg/m3
400 K, 6630.2 kPa | 219.389 kg/m3
400 K, 6630.3 kPa | 219.386 kg/m3 and 219.389 kg/m3
400 K, 6630.4 kPa | 219.389 kg/m3 [middle of 4 runs]
400 K, 6978.6 kPa | 243.19 kg/m3 and 243.192 kg/m3
400 K, 6978.7 kPa | 243.193 kg/m3 and 243.189 kg/m3 and 243.196 kg/m3
400 K, 6978.8 kPa | 243.19 kg/m3
400 K, 6978.9 kPa | 243.193 kg/m3
400 K, 7736.9 kPa | 280.444 kg/m3 and 280.447 kg/m3
400 K, 7737 kPa | 280.444 kg/m3
400 K, 7737.1 kPa | 280.449 kg/m3 and 280.444 kg/m3
400 K, 7737.2 kPa | 280.444 kg/m3
400 K, 7737.3 kPa | 280.449 kg/m3 and 280.45 kg/m3
400 K, 7912.9 kPa | 286.854 kg/m3
400 K, 7913.2 kPa | 286.868 kg/m3 and 286.866 kg/m3 and 286.857 kg/m3
400 K, 7913.4 kPa | 286.864 kg/m3
400 K, 10112 kPa | 336.235 kg/m3 [middle of 5 runs]
